In patent US20220380338A1, “CYCLOALKYL 3-OXOPIPERAZINE CARBOXAMIDES AND CYCLOHETEROALKYL 3-OXOPIPERAZINE CARBOXAMIDES AS NAV1.8 INHIBITORS” (Merck Sharp & Dohme LLC, priority 2021, published 2022) one finds IC50 data, which are given here for 27 compounds.

The term pIC50 denotes the IC50 on a negative log10 scale, so that one unit is a factor of ten. Low values mean a large IC50, high ones a small IC50.

pIC50: −log10 of the molar value.

In this assay the target is T1, human NaV1.8 (Homo sapiens, UniProt Q9Y5Y9).
T1 construct: expressed in transfected cells
T1 sequence (Q9Y5Y9 whole entry): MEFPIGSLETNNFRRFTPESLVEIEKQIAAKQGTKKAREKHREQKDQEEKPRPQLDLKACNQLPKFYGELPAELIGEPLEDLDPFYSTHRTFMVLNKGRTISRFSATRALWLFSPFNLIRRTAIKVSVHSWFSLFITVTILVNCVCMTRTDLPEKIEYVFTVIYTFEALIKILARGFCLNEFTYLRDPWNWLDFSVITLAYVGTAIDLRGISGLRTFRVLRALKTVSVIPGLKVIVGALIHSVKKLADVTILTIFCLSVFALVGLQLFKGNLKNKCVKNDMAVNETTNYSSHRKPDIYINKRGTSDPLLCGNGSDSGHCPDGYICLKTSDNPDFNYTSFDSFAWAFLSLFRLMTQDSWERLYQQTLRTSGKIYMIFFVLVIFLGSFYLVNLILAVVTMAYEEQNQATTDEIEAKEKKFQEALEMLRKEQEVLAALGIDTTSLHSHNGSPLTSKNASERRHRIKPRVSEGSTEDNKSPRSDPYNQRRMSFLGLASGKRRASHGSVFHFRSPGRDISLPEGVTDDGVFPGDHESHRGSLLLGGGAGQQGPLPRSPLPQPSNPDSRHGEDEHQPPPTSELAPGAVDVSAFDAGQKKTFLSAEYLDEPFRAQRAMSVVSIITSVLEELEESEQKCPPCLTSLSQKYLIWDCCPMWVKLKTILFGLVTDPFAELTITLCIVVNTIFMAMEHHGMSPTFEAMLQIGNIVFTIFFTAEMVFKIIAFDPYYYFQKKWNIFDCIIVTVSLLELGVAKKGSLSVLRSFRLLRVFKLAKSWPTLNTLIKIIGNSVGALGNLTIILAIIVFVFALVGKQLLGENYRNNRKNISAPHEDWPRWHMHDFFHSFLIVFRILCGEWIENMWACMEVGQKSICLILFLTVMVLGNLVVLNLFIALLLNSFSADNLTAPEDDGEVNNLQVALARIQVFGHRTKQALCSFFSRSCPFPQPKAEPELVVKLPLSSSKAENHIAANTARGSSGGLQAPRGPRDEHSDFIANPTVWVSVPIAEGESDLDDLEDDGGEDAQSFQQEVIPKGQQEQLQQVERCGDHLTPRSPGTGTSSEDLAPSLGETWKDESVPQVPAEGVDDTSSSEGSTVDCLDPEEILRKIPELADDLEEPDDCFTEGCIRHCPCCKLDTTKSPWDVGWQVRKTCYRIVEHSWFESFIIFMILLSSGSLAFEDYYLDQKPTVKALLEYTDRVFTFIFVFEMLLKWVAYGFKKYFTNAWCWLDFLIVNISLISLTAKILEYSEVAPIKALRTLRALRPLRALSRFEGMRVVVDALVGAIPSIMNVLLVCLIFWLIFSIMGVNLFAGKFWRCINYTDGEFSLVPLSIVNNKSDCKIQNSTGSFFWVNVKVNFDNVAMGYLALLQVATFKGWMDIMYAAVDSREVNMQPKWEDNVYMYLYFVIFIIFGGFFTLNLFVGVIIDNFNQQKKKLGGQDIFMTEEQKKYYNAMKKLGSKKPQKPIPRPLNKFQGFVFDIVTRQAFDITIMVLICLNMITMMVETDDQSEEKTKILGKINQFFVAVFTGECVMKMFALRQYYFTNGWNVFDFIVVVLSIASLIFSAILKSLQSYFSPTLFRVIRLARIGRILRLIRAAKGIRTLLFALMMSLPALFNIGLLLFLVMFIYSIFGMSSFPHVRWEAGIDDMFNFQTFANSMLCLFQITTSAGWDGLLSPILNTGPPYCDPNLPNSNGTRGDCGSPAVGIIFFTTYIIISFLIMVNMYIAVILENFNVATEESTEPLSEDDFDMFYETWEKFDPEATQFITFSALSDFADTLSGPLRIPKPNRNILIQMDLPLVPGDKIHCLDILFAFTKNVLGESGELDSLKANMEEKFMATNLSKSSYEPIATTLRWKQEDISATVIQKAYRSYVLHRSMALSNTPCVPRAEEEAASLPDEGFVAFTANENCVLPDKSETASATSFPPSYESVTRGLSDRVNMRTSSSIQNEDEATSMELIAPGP
Put plainly: Nav1.8 Qube® Assay (automated 384-well patch-clamp, inhibition of sodium current). Conditions: human NaV1.8 channels stably expressed in HEK 293 cells, room temperature. The assay is classed as cell-based. The procedure, abridged:
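Whole-cell voltage clamp at room temperature in HEK293 cells stably expressing NaV1.8; from −90 mV hold, 10 s 1 Hz train of 20 ms pulses to 10 mV with 980 ms repolarization to −67 mV. Peak currents of 1st and 10th pulses give resting and inactivated-state IC50s, Hill fit.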
Consider `C[C@@H]1C(=O)NCCN1C(=O)NC(c1ccc(F)c(Cl)c1F)C1CCC(F)(F)C1` (single isomer, unassigned) [Example 42A, (2R)-N-((R or S)-(3-choro-2,4-difluoro-phenyl)((R or S)-3,3-difluorocyclopentyl)-methyl)-2-methyl-3-oxopiperazine-1-carboxamide], for which the pIC50 was 6.49.

In the case of `C[C@@H]1C(=O)NCCN1C(=O)NC(c1ccc(F)c(Cl)c1F)C1CCC(F)(F)C1` (single isomer, unassigned) [Example 42B, (2R)-N-((R or S)-(3-chloro-2,4-difluoro-phenyl)((S or R)-3,3-difluorocyclopentyl)-methyl)-2-methyl-3-oxopiperazine-1-carboxamide], the pIC50 was 5.55. The compound `C[C@@H]1C(=O)NCCN1C(=O)NC(c1ccc(F)c(Cl)c1F)C1CCC(F)(F)C1` (single isomer, unassigned) [Example 42C, (2R)-N-((S or R)-(3-chloro-2,4-difluoro-phenyl)((R or S)-(3,3-difluorocyclopentyl)-methyl)-2-methyl-3-oxopiperazine-1-carboxamide] had a pIC50 of 7.62. The compound `C[C@@H]1C(=O)NCCN1C(=O)NC(c1ccc(F)c(Cl)c1F)C1CCC(F)(F)C1` (single isomer, unassigned) [Example 42D, (2R)-N-((S or R)-(3-chloro-2,4-difluoro-phenyl)((S or R)-3,3-difluorocyclopentyl)-methyl)-2-methyl-3-oxopiperazine-1-carboxamide] had a pIC50 of 7.70.

With `C[C@@H]1C(=O)NCCN1C(=O)NC(c1ccc(F)c(Cl)c1)C1CC(C(F)(F)F)C1` (single isomer, unassigned) [Example 43A, (2R)-N-((R or S)-(3-chloro-4-fluorophenyl)-(trans-3-(trifluoro-methyl)-cyclobutyl)-methyl)-2-methyl-3-oxopiperazine-1-carboxamide], the pIC50 is 7.40.

In the case of `C[C@@H]1C(=O)NCCN1C(=O)NC(c1ccc(F)c(Cl)c1)C1CC(C(F)(F)F)C1` (single isomer, unassigned) [Example 43B, (2R)-N-((R or S)-(3-chloro-4-fluorophenyl)-(cis-3-(trifluoromethyl)-cyclobutyl)methyl)-2-methyl-3-oxopiperazine-1-carboxamide], the pIC50 was 7.58. The compound `C[C@@H]1C(=O)NCCN1C(=O)NC(c1ccc(F)c(Cl)c1)C1CC(C(F)(F)F)C1` (single isomer, unassigned) [Example 43C, (2R)-N-((S or R)-(3-chloro-4-fluorophenyl)-(trans-3-(trifluoro-methyl)-cyclobutyl)-methyl)-2-methyl-3-oxopiperazine-1-carboxamide] gave a negative-log IC50 (pIC50) of 8.49. Turning to `C[C@@H]1C(=O)NCCN1C(=O)NC(c1ccc(F)c(Cl)c1)C1CC(C(F)(F)F)C1` (single isomer, unassigned) [Example 43D, (2R)-N-((S or R)-(3-chloro-4-fluorophenyl)-(cis-3-(trifluoromethyl)-cyclobutyl)methyl)-2-methyl-3-oxopiperazine-1-carboxamide], the pIC50 was 7.66. As for `C[C@@H]1C(=O)NCCN1C(=O)NC(c1ccc(F)c(Cl)c1)C1CC(OCC(F)(F)F)C1` (single isomer, unassigned) [Example 44A, (2R)—N—((R or S)-(3-chloro-4-fluorophenyl)(cis-3-(2,2,2-trifluoroethoxy)cyclobutyl)methyl)-2-methyl-3-oxopiperazine-1-carboxamide], the pIC50 is 7.04. The value for `C[C@@H]1C(=O)NCCN1C(=O)NC(c1ccc(F)c(Cl)c1)C1CC(OCC(F)(F)F)C1` (single isomer, unassigned) [Example 44B, (2R)—N—((S or R)-(3-chloro-4-fluorophenyl)(cis-3-(2,2,2-trifluoroethoxy)cyclobutyl)methyl)-2-methyl-3-oxopiperazine-1-carboxamide] was 6.47; that for `C[C@@H]1C(=O)NCCN1C(=O)NC(c1ccc(F)c(Cl)c1)C1CC(OCC(F)(F)F)C1` (single isomer, unassigned) [Example 44C, (2R)—N—((R or S)-(3-chloro-4-fluorophenyl)(trans-3-(2,2,2-trifluoroethoxy)cyclobutyl)methyl)-2-methyl-3-oxopiperazine-1-carboxamide] was 6.76; that for `C[C@@H]1C(=O)NCCN1C(=O)NC(c1ccc(F)c(Cl)c1)C1CC(OCC(F)(F)F)C1` (single isomer, unassigned) [Example 44D, (2R)—N—((S or R)-(3-chloro-4-fluorophenyl)(trans-3-(2,2,2-trifluoroethoxy)cyclobutyl)methyl)-2-methyl-3-oxopiperazine-1-carboxamide] was 7.64. Consider `O=C1CN(C(=O)NC(c2ccc(Cl)c(C(F)(F)F)n2)C2CCC(C(F)(F)F)CC2)CCN1` (single isomer, unassigned) [Example 45A], for which the pIC50 is 6.55. `O=C1CN(C(=O)NC(c2ccc(Cl)c(C(F)(F)F)n2)C2CCC(C(F)(F)F)CC2)CCN1` (single isomer, unassigned) [Example 45B]: the pIC50 is 8.28.

As for `C[C@@H]1C(=O)NCCN1C(=O)NC(c1ccc(Cl)c(C(F)(F)F)n1)C1CCC(F)(F)CC1` (single isomer, unassigned) [Example 46A, (2R)-N-((R or S)-(5-chloro-6-(trifluoro-methyl)pyridin-2-yl)(4,4-difluoro-cyclohexyl)methyl)-2-methyl-3-oxo-piperazine-1-carboxamide], the pIC50 was 6.47. The value for `C[C@@H]1C(=O)NCCN1C(=O)NC(c1ccc(Cl)c(C(F)(F)F)n1)C1CCC(F)(F)CC1` (single isomer, unassigned) [Example 46B, (2R)-N-((S or R)-(5-chloro-6-(trifluoro-methyl)pyridin-2-yl)(4,4-difluoro-cyclohexyl)methyl)-2-methyl-3-oxo-piperazine-1-carboxamide] was 7.63; that for `C[C@@H]1C(=O)NCCN1C(=O)NC(c1ccc(Cl)c(C(F)(F)F)n1)C1CC(C(F)(F)F)C1` (single isomer, unassigned) [Example 47A, (2R)—N—((R or S)-(5-chloro-6-(trifluoromethyl)pyridin-2-yl)(cis-3-(trifluoromethyl)-cyclobutyl)methyl)-2-methyl-3-oxopiperazine-1-carboxamide] was 7.94. In turn, `C[C@@H]1C(=O)NCCN1C(=O)NC(c1ccc(Cl)c(C(F)(F)F)n1)C1CC(C(F)(F)F)C1` (single isomer, unassigned) [Example 47B, (2R)—N—((R or S)-(5-chloro-6-(trifluoromethyl)pyridin-2-yl)(trans-3-(trifluoromethyl)cyclobutyl)methyl)-2-methyl-3-oxopiperazine-1-carboxamide] showed a negative logarithm of the IC50 (pIC50) of 7.21. Take `C[C@@H]1C(=O)NCCN1C(=O)NC(c1ccc(Cl)c(C(F)(F)F)n1)C1CC(C(F)(F)F)C1` (single isomer, unassigned) [Example 47C, (2R)—N—((S or R)-(5-chloro-6-(trifluoromethyl)pyridin-2-yl)(trans-3-(trifluoromethyl)cyclobutyl)methyl)-2-methyl-3-oxopiperazine-1-carboxamide]: the pIC50 is 8.58. The compound `C[C@@H]1C(=O)NCCN1C(=O)NC(c1ccc(Cl)c(C(F)(F)F)n1)C1CC(C(F)(F)F)C1` (single isomer, unassigned) [Example 47D, (2R)—N—((S or R)-(5-chloro-6-(trifluoromethyl)pyridin-2-yl)(cis-3-(trifluoromethyl)-cyclobutyl)methyl)-2-methyl-3-oxopiperazine-1-carboxamide] had a negative logarithm of the IC50 (pIC50) of 7.44. In turn, `C[C@@H]1C(=O)NCCN1C(=O)NC(C)(c1ccc(F)c(Cl)c1)C1CC(C(F)(F)F)C1` (single isomer, unassigned) [Example 48A, (2R)—N—((R or S)-1-(3-chloro-4-fluorophenyl)-1-(cis-3-(trifluoromethyl)cyclobutyl)ethyl)-2-methyl-3-oxopiperazine-1-carboxamide] showed a pIC50 of 5.36.

In turn, `C[C@@H]1C(=O)NCCN1C(=O)NC(C)(c1ccc(F)c(Cl)c1)C1CC(C(F)(F)F)C1` (single isomer, unassigned) [Example 48B, (2R)—N—((R or S)-1-(3-chloro-4-fluorophenyl)-1-(trans-3-(trifluoromethyl)cyclobutyl)ethyl)-2-methyl-3-oxopiperazine-1-carboxamide] showed a pIC50 of 6.04.

The compound `C[C@@H]1C(=O)NCCN1C(=O)NC(C)(c1ccc(F)c(Cl)c1)C1CC(C(F)(F)F)C1` (single isomer, unassigned) [Example 48C, (2R)—N—((S or R)-1-(3-chloro-4-fluorophenyl)-1-(cis-3-(trifluoromethyl)cyclobutyl)ethyl)-2-methyl-3-oxopiperazine-1-carboxamide] gave a pIC50 of 6.51.

The compound `C[C@@H]1C(=O)NCCN1C(=O)NC(C)(c1ccc(F)c(Cl)c1)C1CC(C(F)(F)F)C1` (single isomer, unassigned) [Example 48D, (2R)—N—((S or R)-1-(3-chloro-4-fluorophenyl)-1-(trans-3-(trifluoromethyl)cyclobutyl)ethyl)-2-methyl-3-oxopiperazine-1-carboxamide] showed a pIC50 of 6.29. The value for `C[C@@H]1C(=O)NCCN1C(=O)NC(c1ccc(OC(F)(F)F)c(F)c1)[C@H]1C[C@H](C(F)(F)F)C1` (single isomer, unassigned) [Example 49A] was 8.35; that for `C[C@@H]1C(=O)NCCN1C(=O)NC(c1ccc(OC(F)(F)F)c(F)c1)[C@H]1C[C@H](C(F)(F)F)C1` (single isomer, unassigned) [Example 49B] was 7.07; that for `C[C@@H]1C(=O)NCCN1C(=O)NC(c1ccc(OC(F)(F)F)cc1F)[C@H]1C[C@H](C(F)(F)F)C1` (single isomer, unassigned) [Example 50A, ((2R)-N-((R or S)-(2-fluoro-4-(trifluoro-methoxy)phenyl)(trans-3-(trifluoromethyl)-cyclobutyl)methyl)-2-methyl-3-oxopiperazine-1-carboxamide] was 6.41.
